Data published in patent US7456292B2, “Hydroxamic acid-containing amino acid derivatives” (Bexel Pharmaceuticals, Inc., priority 2005, dated 2008).
Like-named read-outs stand apart in the source and are kept apart here.

What was measured:
IL-6 [1] = assay: LPS induced IL-6 in hPBMC; assay type: cell-based; details: Homo sapiens, LPS 1 μg/mL 24 hours
Description: (§1) Human PBMC monocyte cells were cultured and incubated with compounds at different concentrations. Cells were then challenged with lipopolysaccharides (LPS) at a concentration of (1 μg/mL) for 24 hours. Cell supernatants were then analyzed for the presence of TNF-α, IL-6 and IL-1β cytokines by antibody directed enzyme-linked immunoassay. Dexamethasone was used as a positive control in the experiments.

[2] = molecular target: T1, Phosphodiesterase type-3 (PDE3) (Homo sapiens, UniProt Q14432); assay: PDE-3 enzyme inhibition; assay type: biochemical
T1 construct: from tissue; host or cells: human platelets
T1 sequence (Q14432 whole entry): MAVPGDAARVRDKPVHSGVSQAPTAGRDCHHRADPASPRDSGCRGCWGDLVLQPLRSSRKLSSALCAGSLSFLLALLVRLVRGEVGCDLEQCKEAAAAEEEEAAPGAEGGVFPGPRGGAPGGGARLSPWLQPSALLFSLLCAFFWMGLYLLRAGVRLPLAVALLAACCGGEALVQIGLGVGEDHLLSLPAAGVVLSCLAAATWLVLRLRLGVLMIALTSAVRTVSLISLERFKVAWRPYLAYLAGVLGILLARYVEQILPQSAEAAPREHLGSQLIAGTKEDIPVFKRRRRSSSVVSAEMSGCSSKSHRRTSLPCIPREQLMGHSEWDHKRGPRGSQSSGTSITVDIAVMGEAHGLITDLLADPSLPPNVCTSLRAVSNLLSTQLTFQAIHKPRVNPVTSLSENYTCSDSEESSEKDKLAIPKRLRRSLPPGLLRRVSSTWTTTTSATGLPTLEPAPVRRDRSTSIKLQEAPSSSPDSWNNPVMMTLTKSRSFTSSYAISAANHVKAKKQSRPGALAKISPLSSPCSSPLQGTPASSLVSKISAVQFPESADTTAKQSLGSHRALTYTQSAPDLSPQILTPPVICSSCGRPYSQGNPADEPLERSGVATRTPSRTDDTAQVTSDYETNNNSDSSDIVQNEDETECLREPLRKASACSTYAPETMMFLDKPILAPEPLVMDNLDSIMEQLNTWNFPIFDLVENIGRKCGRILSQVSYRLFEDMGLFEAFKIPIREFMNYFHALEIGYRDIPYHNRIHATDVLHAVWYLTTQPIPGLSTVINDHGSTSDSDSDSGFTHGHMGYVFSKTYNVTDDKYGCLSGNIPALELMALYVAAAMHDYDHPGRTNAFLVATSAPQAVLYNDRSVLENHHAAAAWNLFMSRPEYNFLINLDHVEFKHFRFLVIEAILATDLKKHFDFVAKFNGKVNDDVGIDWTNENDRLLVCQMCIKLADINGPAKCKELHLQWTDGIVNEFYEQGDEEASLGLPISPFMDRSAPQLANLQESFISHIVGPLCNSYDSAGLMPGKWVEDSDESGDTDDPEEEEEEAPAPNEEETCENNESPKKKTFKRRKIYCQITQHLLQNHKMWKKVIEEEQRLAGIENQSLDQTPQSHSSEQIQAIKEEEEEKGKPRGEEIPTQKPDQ

TNF-α [3] = assay: LPS induced TNF-α in hPBMC; assay type: cell-based; details: Homo sapiens; hPBMC, 10 μM, LPS 1 μg/mL 24 hours; * average of two experiments; read-out: Inhibition (%) TNF-α
Description: as §1

Human recombinant TACE = molecular target: T2, Human recombinant TACE (Homo sapiens, UniProt P78536); assay: TACE enzyme inhibition; assay type: biochemical
T2 construct: purchased R&D System 930-ADB; host or cells: Sf21 cells
T2 sequence (P78536 215-671 limits assumed): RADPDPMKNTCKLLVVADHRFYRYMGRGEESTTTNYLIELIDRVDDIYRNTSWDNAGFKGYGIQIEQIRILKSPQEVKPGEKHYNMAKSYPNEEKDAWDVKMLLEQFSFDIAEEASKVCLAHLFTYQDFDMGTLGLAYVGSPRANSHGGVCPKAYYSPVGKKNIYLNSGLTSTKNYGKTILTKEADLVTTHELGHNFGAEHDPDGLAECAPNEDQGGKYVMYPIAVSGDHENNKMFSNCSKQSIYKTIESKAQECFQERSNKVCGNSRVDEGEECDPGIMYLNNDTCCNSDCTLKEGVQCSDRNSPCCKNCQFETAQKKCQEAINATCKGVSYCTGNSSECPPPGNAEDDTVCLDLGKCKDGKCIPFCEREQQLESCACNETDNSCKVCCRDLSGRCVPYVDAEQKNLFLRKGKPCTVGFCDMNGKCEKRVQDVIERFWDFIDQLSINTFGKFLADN
Text: Tumor necrosis factor-α converting enzyme (TACE/ADAM-17) is responsible for the release of TNF-α, a potent proinflammatory cytokine associated with many chronic debilitating diseases such as rheumatoid arthritis and multiple sclerosis. TNF-α also induces angiogenesis, promotes fibroblast proliferation and can combine with receptors on selected tumor cells to induce cell lysis. TACE is also implicated in amyloid precursor protein secretion. Human recombinant TACE expressed in Sf21 cells (R&D System, 930-ADB) is used. Test compound and/or vehicle is incubated with the enzyme (25 ng/ml) and 10 μM Mca-P-L-A-Q-A-V-Dpa-R-S-S-S-R-NH2 (SEQ. ID NO. 3) in Modified Tris-buffer pH 9.0 for 30 minutes at 25° C. Enzyme activity is determined spectrofluorimetrically by measuring the formation of fluorescent Mca-P-L-A-Q-A-NH2 (SEQ. ID NO. 4). Compounds are screened at 10 μM.

T cell proliferation = assay: Inhibition of T cell proliferation; assay type: cell-based, mice; details: Mus musculus, T-cell, 10 μM
Description: SJL mice were immunized with keyhole limpet hemocyanin (KLH) in complete Freund's adjuvant (CFA). 12 days later regional lymph nodes were isolated and a proliferative response to KLH in the presence or absence of drug was performed (in presence of 3H thymidine). The results are expressed at Stimulation index (CPM+antigen/CPM no antigen). Similarly, mitogen induced concanavalin A (CON-A), IL-4, IL-2 induced T cell proliferation was measured in presence of compounds are shown in Table VI.

nitric oxide = assay: Nitric oxide secretion following LPS stimulation of mouse spleenic macrophages; assay type: cell-based; details: Macrophage, LPS stimulated mouse spleenic macrophages, read-out: Mice Spleen Cells (% Inhibition) NO
[4] = test system: Collagen Induced Arthritis Model; assay: Collagen induced arthritis model; assay type: in vivo; details: male DBA/1 Lac mice, oral 50 mg/kg daily
Description: Arthritis induced in male DBA/1 Lac mice with bovine collagen (100 μg/mouse). Booster dose was given on Day 21 and started treatment when clinical score was about 2. […] Dexamethasone was kept as positive control. Severity of each paw score was defined from 0=no erythma to 4=severe arthritis for the swollen paws with a maximum possible score of 16 for 4 paws (4×4) in one animal.

MMP-1 = molecular target: T3, MMP-1 (Homo sapiens, UniProt P03956); assay: MMP-1 enzyme inhibition; assay type: biochemical
T3 construct: purchased Calbiochem 444208; host or cells: human rheumatoid synovial fibroblast (natural source)
T3 sequence (P03956 100-469): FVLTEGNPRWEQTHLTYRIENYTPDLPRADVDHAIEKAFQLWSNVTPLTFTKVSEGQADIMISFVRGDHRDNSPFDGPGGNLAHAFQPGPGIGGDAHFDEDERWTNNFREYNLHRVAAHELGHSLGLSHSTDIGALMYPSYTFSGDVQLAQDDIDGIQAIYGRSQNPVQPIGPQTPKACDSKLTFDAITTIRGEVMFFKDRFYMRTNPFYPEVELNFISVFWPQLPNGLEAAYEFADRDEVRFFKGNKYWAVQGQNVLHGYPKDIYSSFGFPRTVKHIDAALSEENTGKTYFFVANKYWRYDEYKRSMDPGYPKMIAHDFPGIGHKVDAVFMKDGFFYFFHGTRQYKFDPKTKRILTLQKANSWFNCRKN
Description: The enzyme MMP-1 (interstitial collagenase; EC 3.4.24.7, human rheumatoid synovial fibroblast, Calbiochem Cat. 444208) is used. MMP-1 is first activated with APMA for 60 minutes at 37° C. Test compound and/or vehicle is then preincubated for 60 minutes at 37° C. with the active enzyme ([…]) in a reaction mixture containing 50 mM MOPS (pH 7.2), 10 mM CaCl2 and 10 μM ZnCl2. The reaction is initiated by addition of Mca-Pro-Leu-Gly-Leu-Dpa-Ala-Arg-NH2 (SEQ. ID NO. 1) (4 μM) and incubated for 120 minutes at 37° C. The N-terminal protecting group Mca is 7-methoxycoumarin-4-yl acetyl. The amino acid Dpa is N^3-(2,4-dinitrophenyl)-L-diaminopropanoyl. Enzyme activity is determined spectrofluorometrically by measuring the formation of fluorescent Mca-Pro-Leu-Gly (SEQ. ID NO. 2). Compounds are screened at 10 μM.

IL-1β = assay: LPS induced IL-1β in hPBMC; assay type: cell-based; details: Homo sapiens, LPS 1 μg/mL 24 hours
Description: as §1

TNF-α [5] = assay: LPS induced TNF-α in THP-1 monocytic cells; assay type: cell-based; details: Homo sapiens, LPS 1 μg/mL 24 hours
Description: as §1, with “THP-1” for “PBMC”, “TNF-α” for “TNF-α, IL-6 and IL-1β”, “immunoassay from R & D System, Minneapolis, USA.” for “immunoassay. Dexamethasone was used as a positive control in the experiments.”

[6] = test system: Phosphodiesterase type 4 (PDE4); assay: PDE-4 enzyme inhibition; assay type: biochemical, human
IL-6 [7] = assay: LPS induced sepsis model in mice, serum IL-6; assay type: in vivo; details: Mus musculus; SW mice, oral 50 mg/kg body weight one hour before LPS, serum after 90 min
Description: (§2) SW mice were orally treated with vehicle, dexamethasone (5 mg/kg) and compounds at a dose of 50 mg/kg body weight one hour before LPS injection (10 μg/mouse, ip) and blood was collected after 90 min and measured serum TNF-α and IL-6 levels by ELISA.

MMP-9 = molecular target: T4, MMP-9 (Homo sapiens, UniProt P14780); assay: MMP-9 enzyme inhibition; assay type: biochemical
T4 construct: purchased Calbiochem PF024-5UG
T4 sequence (P14780 107-707 limits assumed): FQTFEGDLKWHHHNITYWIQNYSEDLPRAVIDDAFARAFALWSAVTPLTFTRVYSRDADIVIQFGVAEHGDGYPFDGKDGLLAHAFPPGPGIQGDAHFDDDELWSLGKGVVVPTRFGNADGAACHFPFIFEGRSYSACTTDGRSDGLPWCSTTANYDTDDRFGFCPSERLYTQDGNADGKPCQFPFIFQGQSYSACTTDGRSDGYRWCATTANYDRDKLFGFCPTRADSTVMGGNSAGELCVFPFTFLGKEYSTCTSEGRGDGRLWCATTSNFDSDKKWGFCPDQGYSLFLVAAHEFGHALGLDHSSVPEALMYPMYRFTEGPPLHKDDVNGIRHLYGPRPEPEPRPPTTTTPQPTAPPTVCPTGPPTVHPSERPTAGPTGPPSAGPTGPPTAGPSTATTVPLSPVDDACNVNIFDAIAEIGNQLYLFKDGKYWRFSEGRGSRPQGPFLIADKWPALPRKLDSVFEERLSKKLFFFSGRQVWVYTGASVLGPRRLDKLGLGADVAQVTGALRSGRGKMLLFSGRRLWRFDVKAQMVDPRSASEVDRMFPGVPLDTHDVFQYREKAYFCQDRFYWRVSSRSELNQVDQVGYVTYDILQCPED
Description: The enzyme MMP-9 (gelatinase B; EC 3.4.24.35, human recombinant, Calbiochem Cat. PF024-5UG) is used. MMP-9 is first activated with APMA for 60 minutes at 37° C. Test compound and/or vehicle is then preincubated for 60 minutes at 37° C. with the active enzyme (11 nM) in a reaction mixture containing 50 mM MOPS (pH 7.2), 10 mM CaCl2 and 10 μM ZnCl2. The reaction is initiated by addition of 4 μM Mca-Pro-Leu-Gly-Leu-Dpa-Ala-Arg-NH2 (SEQ. ID NO. 1) and incubated for 120 minutes at 37° C. Enzyme activity is determined spectrofluorometrically by measuring the formation of fluorescent Mca-Pro-Leu-Gly (SEQ. ID NO. 2). Compounds are screened at 10 μM.

TNF-α [8] = assay: TNF-α secretion following LPS stimulation of mouse spleenic macrophages; assay type: cell-based; details: Macrophage, LPS stimulated mouse spleenic macrophages, read-out: Mice Spleen Cells (% Inhibition) TNF-α
TNF-α [9] = assay: LPS induced sepsis model in mice, serum TNF-α; assay type: in vivo; details: Mus musculus; SW mice, oral 50 mg/kg body weight one hour before LPS, serum after 90 min
Description: as §2

IL-12 = IL-12 secretion following LPS stimulation of mouse spleenic macrophages; assay type: cell-based
Text: Compound 6 of this class inhibited IL-12 production in mouse splenic macrophages stimulated with LPS for 72 hrs.

inhibition at 10 µM [2]: 3%
inhibition at 10 µM (Human recombinant TACE): 15%
inhibition at 10 µM (MMP-1): 12%
Inhibition at 10 μM (%) PDE-4 [6]: 4%
inhibition at 10 µM (MMP-9): < 0%
Compound: Cl.NC(Cc1ccc(Oc2ccc(C(=O)NO)cc2)cc1)C(=O)OCc1ccccc1 (stereo not drawn) [Compound 6, 2-amino-3-[4-(4-hydroxycarbamoylphenoxy)-phenyl]-propionic acid benzyl ester hydrochloric acid salt]
inhibition at 10 µM (IL-6 [1]): 97%
inhibition at 10 µM (TNF-α [3]): 69.6%
inhibition at 10 µM (T cell proliferation; Anti CD3 Abs induced, read-out: Inhibition of T cell proliferation, Anti CD3 Abs): < 80%
inhibition at 10 µM (T cell proliferation; CON A induced, read-out: Inhibition of T cell proliferation, CON A): 61 to 80%
inhibition at 10 µM (T cell proliferation; IL-2 induced, read-out: Inhibition of T cell proliferation, IL-2): 61 to 80%
inhibition at 10 µM (T cell proliferation; IL-4 induced, read-out: Inhibition of T cell proliferation, IL-4): 61 to 80%
inhibition at 10 µM (T cell proliferation; KLH specific, lymph nodes of KLH immunized SJL mice, read-out: Inhibition of T cell proliferation, KLH Specific): < 80%
inhibition at 10 µM (nitric oxide): 20%
arthritic scores [4]: significantly improved the arthritic scores
inhibition at 10 µM (IL-1β): 73%
inhibition at 10 µM (TNF-α [5]): 92%
inhibition at 50 mg/kg (IL-6 [7]): 30%
inhibition at 10 µM (TNF-α [8]): 20%
inhibition at 50 mg/kg (TNF-α [9]): 50%
inhibition at 10 µM (IL-12; Macrophage, LPS stimulated mouse spleenic macrophages, 10 μM, read-out: Mice Spleen Cells (% Inhibition) IL-12): 80%
IL-12 production (IL-12; mouse splenic macrophages stimulated with LPS for 72 hrs): strongly inhibited IL-12 production
